Entries after “also recorded” stand apart in the source; their conditions may differ.
Legend:
HUES 9 EB = assay: Expression profiles of lineage, pluripotency, epigenetic and imprinted genes in day 4.5 spherical EBs (HUES 9); assay type: cell-based, human; parameters: key: The sign ‘+’ indicates expression of the gene; the sign “−” indicates non-expression of the gene
Procedure: RT-PCR: Total RNA from cells was isolated using TRIZOL-LS Reagent (Invitrogen) as per the manufacturer's protocol. Complementary DNA was synthesized using the SuperScript III First-Strand Synthesis System (Invitrogen) as per the manufacturer's instructions. Polymerase Chain Reaction (PCR) was carried out using 1U Tag DNA Polymerase (Sigma) and MgCl2 to a final concentration of 1.5 mM in a total volume of 25 μl/reaction. β-actin and GAPDH were used as the housekeeping controls. PCR cycles consisted of an initial denaturation at 95° C. for 5 minutes followed by 35 amplification cycles of denaturation at 94° C. for 45 seconds, annealing for 45 seconds, and extension at 72° C. for 45 seconds and final extension at 72° C. for 10 minutes.
Examples of changes in the expression profiles/patterns of lineage markers, pluripotency markers, epigenetic markers and imprinted genes, in day 4.5 spherical cavitating/cytic embryoid bodies upon exposure to compounds like lipopolysaccharide (LPS), Rho kinase inhibitor (Y27632), Azacytidine (Aza), and biologicals like an Uvomorulin antibody (UVO) are given in the table nos. 9-12 below. The sign ‘+’ indicates expression of the gene and the sign “−” indicates non-expression of the gene.

EBs = assay: In vitro 3-D embryo implantation model: attachment and outgrowth of EBs; assay type: cell-based, human; settings: for degeneration, attachment and outgrowth of EBs in implantation model: high dose, 48 hrs; for ability of attached EBs to give rise to all lineages: lineage induction studies, in presence of the compound
Text: An in vitro 3-dimensional (3-D) model/system for embryo implantation employing EBs in place of embryos was developed. The EBs collected on different days were subjected to implantation/attachment on the artificial substratum/surface.
To make this artificial surface regular tissue culture dishes or organ culture dishes were coated with about 1 to 2 mm thick coating of 0.5 to 1% low melting or high melting agarose in DPBS. A few wells of about 1 to 2 mm diameter are created using sterile paper disks, preferable in the center of the dish, which were removed after the agarose solidifies. Alternatively a horizontal tube like structure can be created by casting the gel over a fine glass capillary, which can be withdrawn as the agarose solidifies. This cavity/depression or tube like structure of agarose is then coated with matrix proteins like matrigel, collagen, fibronectin, laminin, gelatin etc. The coated agarose dishes were also layered with mouse or human endometrial stromal cells obtained from primary cultures or cell lines. The EBs were placed carefully in the cavity created or flushed inside the tube using a bent pasture pipette. The cells were cultured in normal standard EB media.
The EBs adhere and outgrows spreading out as a monolayer of cells on the extracellular matrix. Some cells invaded the surrounding agarose by day 10. A failure to implant/outgrow within ten days on this matrix after exposure to the drug/molecule indicates an abnormality. However, some drugs/could also support/enhance the process of attachment and outgrowth of the EBs. These molecules were screened for several other possible applications, though these may not necessarily be safe for embryonic development.
Four day old EBs were cultured on agarose and fibronectin coated surfaces. […] However, as Y27632 supports and enhances outgrowth, the effect of this drug on the expression profiles of the lineage markers and other genes needs to be screened for evaluating effect on normal development.
The model consists of a culture plate which is coated with Low melting (0.5%) agarose, A well of various depths is created in the agarose by various means eg: putting sterile filter paper disks while casting the gel and removing them latter. The gel is then coated with extracellular matrix components like fibronectin, collagen, laminin, etc. Human endometrial stromal fibroblast cell line CRL4003 is grown on this extracellular matrix as a monolayer. The spherical embryoid bodies or embryo like entities at day 4.5 are injected or pipetted into these cavities. The attachment is allowed in a culture media regularly used for hESC culture, without FGF2 supplementation (FIG. 1).
3. Lineage induction studies: The embryoid bodies after attachment to the implantation site differentiates to all lineages.
Method: Spherical Cytic EBs were collected on day 4.5 and exposed to the continuous presence of Y27632 (various doses were used). […] The control cytic EB had however just attached with smaller area of outgrowth showing that this dose of Y27632 can help in initial implantation of embryo during pregnancy.

[1] = HUES 9 EB DAY 4.5 RI (Y27632), control +
[2] = HUES 9 EB DAY 4.5 RI (Y27632), control −

C[C@@H](N)[C@H]1CC[C@H](C(=O)Nc2ccncc2)CC1 [Y27632]
BRACHURY gene expression (HUES 9 EB; [1]): −
CDH1 gene expression (HUES 9 EB; [1]): +
CDX-2 gene expression (HUES 9 EB; [1]): −
DLK-1 gene expression (HUES 9 EB; [1]): −
HOXD11 gene expression (HUES 9 EB; [1]): +
HOXD12 gene expression (HUES 9 EB; [1]): −
SDHD gene expression (HUES 9 EB; [1]): −
TIMP3 gene expression (HUES 9 EB; [1]): −
hTERT gene expression (HUES 9 EB; [1]): −
p53 gene expression (HUES 9 EB; [1]): −
BMP-2 gene expression (HUES 9 EB; [2]): −
CD44 gene expression (HUES 9 EB; [2]): +
NOTCH gene expression (HUES 9 EB; [2]): +
OCT-4 gene expression (HUES 9 EB; [2]): +
PGR gene expression (HUES 9 EB; [2]): +
PTEN gene expression (HUES 9 EB; [2]): +
TGF β gene expression (HUES 9 EB; [2]): +
TP73 gene expression (HUES 9 EB; [2]): +
β-III TUBULIN gene expression (HUES 9 EB; [2]): +
attachment and outgrowth of spheroid cavitating/cystic EB in implantation model (EBs; day 4.5 EBs, 20 μM, 48 hrs exposure): supportive/enhanced attachment; also recorded: attached and outgrown to a larger area
attachment of EBs (EBs; four day old EBs on agarose and fibronectin coated surfaces, 20 μM, control attached from 4th day): enhanced attachment from day 2 onwards

Nc1ncn([C@@H]2O[C@H](CO)[C@@H](O)[C@H]2O)c(=O)n1 [5-Azacytidine]
BRACHURY gene expression (HUES 9 EB; HUES 9 EB D 4.5 AZA, control +): −
CDH1 gene expression (HUES 9 EB; HUES 9 EB D 4.5 AZA, control +): −
CDH13 gene expression (HUES 9 EB; HUES 9 EB D 4.5 AZA, control +): −
CDX2 gene expression (HUES 9 EB; HUES 9 EB D 4.5 AZA, control +): −
DLK1 gene expression (HUES 9 EB; HUES 9 EB D 4.5 AZA, control +): −
HOXD12 gene expression (HUES 9 EB; HUES 9 EB D 4.5 AZA, control +): −
NANOG gene expression (HUES 9 EB; HUES 9 EB D 4.5 AZA, control +): −
SDHD gene expression (HUES 9 EB; HUES 9 EB D 4.5 AZA, control +): −
TIMP3 gene expression (HUES 9 EB; HUES 9 EB D 4.5 AZA, control +): −
TNFR gene expression (HUES 9 EB; HUES 9 EB D 4.5 AZA, control +): −
hTERT gene expression (HUES 9 EB; HUES 9 EB D 4.5 AZA, control +): −
p53 gene expression (HUES 9 EB; HUES 9 EB D 4.5 AZA, control +): −
BMP-2 gene expression (HUES 9 EB; HUES 9 EB D 4.5 AZA, control −): −
CD44 gene expression (HUES 9 EB; HUES 9 EB D 4.5 AZA, control −): −
DPYS gene expression (HUES 9 EB; HUES 9 EB D 4.5 AZA, control −): +
H19 gene expression (HUES 9 EB; HUES 9 EB D 4.5 AZA, control −): −
OCT-4 gene expression (HUES 9 EB; HUES 9 EB D 4.5 AZA, control −): +
PTEN gene expression (HUES 9 EB; HUES 9 EB D 4.5 AZA, control −): −
β-III TUBULIN gene expression (HUES 9 EB; HUES 9 EB D 4.5 AZA, control −): −
degeneration, attachment and outgrowth of EBs in implantation model (EBs): degeneration of the EBs, and they failed to attach and outgrow

OO [H2O2]
ability of attached EBs to give rise to all lineages (EBs): compromised

C[S+](C)[O-] [DMSO]
degeneration, attachment and outgrowth of EBs in implantation model (EBs): degeneration of the EBs, and they failed to attach and outgrow
ability of attached EBs to give rise to all lineages (EBs): compromised
